For 35 compounds, AC50 results are on record in PubChem BioAssay AID463074 (Broad Institute, 2010).

Activity calls are given as the source filed them.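 Rule for the calls: active = AC50 no more than tenfold above the top dose tested, or full inhibition at every dose with a flat fit (cut at about 19 µM in these data); inconclusive = flat curve fit with inhibition between 30% and 70%, or poor fit; inactive = AC50 more than tenfold above the top dose tested.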 A value given as a limit tells only on which side of the number the result lay.

The assay relates to HMLE_sh_eGFP viability, CellTiter-Glo luminescence, 72 h. In words: viability loss of HMLE_sh_eGFP cells – cell-based, luminescence, counter-screen for HMLE_sh_ECad selective toxicity project, dose response (AID 463074).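 Note: counterscreen control line to flag general toxicity for the HMLE_sh_ECad screen; potency for loss of viability as luminescence drops below DMSO wells.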 For orientation: Counterscreens check selectivity or assay interference.
Take `NC(=O)CC(NC(=O)Cc1cccc2ccccc12)c1ccc(NCc2ccc(F)c(F)c2)c([N+](=O)[O-])c1` (stereo not given): the AC50 (in general, the midpoint of the concentration-response curve, whichever way the signal moves) was 10.7 µM.

Take `CCc1ccc(N(CC(=O)Nc2nc3ccc(C)cc3s2)S(=O)(=O)c2c(C)noc2C)cc1`: the AC50 was 6 µM.

Take `CC(=O)Nc1ccc(SC[C@H](C)CN2CC[C@H](C(C)(C)C)CCC2=O)cc1`: the AC50 is 4.98 µM.

As for `CC1=NN(c2ccccc2)C(=O)/C1=C/c1c(O)n(-c2ccc(F)cc2)[nH]c1=O`, the AC50 was 15.8 µM.

Turning to `CCCCn1c(C2CCCCC2)nc2cc3[nH]c(=O)c(C(C)C)nc3cc21`, the AC50 is 1.52 µM.

As for `Cc1ccc(-n2c(-c3cccs3)nc3ccccc3c2=O)cc1`, the AC50 is 3.36 µM.

Take `COc1ccc(C)cc1NC(=O)c1ccccc1NS(=O)(=O)c1ccc(Cl)s1`: the AC50 is 7.89 µM.

Regarding `O=C(Nc1ccc(O)c(-c2nc3ccccc3o2)c1)C1(c2ccc(Br)cc2)CCCC1`, the AC50 was > 19.5 µM (inactive).

In the case of `COC(=O)c1c(-c2ccc(OC)cc2)oc2ccc(-c3cc(OC)c(OC)c(OC)c3)cc12`, the AC50 was 4.97 µM.

As to `O=C(CCSc1nc2ccccc2s1)N/N=C/c1c(O)ccc2ccccc12`, the AC50 was 16.2 µM.

For `CC(=O)Nc1sc(C)c(C)c1C(=O)OCC(=O)N(CC(C)C)c1c(N)n(Cc2ccccc2)c(=O)[nH]c1=O`, the AC50 was 2.85 µM.

As to `CC(C)(C)NC(=O)Cn1nnc(-c2ccc(OCc3c(F)cccc3Cl)cc2)n1`, the concentration at half-maximal activity (AC50) is 1.79 µM.

With `O=C(c1cc(-c2cccc(O)c2)on1)N1CCN(C(c2ccccc2)c2ccccc2)CC1`, the AC50 is 3.11 µM.

Turning to `COc1ccc2nc(C)cc(SCC(=O)N/N=C/c3cccc4ccccc34)c2c1`, the AC50 was 1.86 µM.

Regarding `CCCC(=O)NC(=S)Nc1cccc(Cl)c1N1CCCC1`, the AC50 is 4.25 µM.

Consider `CN1CCN(c2ccc(NC(=O)COc3ccc(Cl)cc3Cl)cc2)CC1`, for which the AC50 was 5.38 µM.

Consider `Cc1onc(-c2c(Cl)cccc2Cl)c1C(=O)NNc1ccccc1`, for which the AC50 is 2.09 µM.

As to `COc1cccc(-c2cc3nc4c(c(N5CCC6(CC5)OCCO6)n3n2)CCCC4)c1`, the AC50 is 9.81 µM.

As to `CCCCNc1c(-c2ccc(OC)c(SC3CCCCC3)c2)nc2cc(C)ccn12`, the concentration at half-maximal activity (AC50) is 5.29 µM.

In the case of `CCOC(=O)/C(=C\c1ccc([N+](=O)[O-])cc1)C(=O)c1cc(C(C)=O)c(Nc2ccccc2)s1`, the AC50 is 1.07 µM.

Consider `Cc1cccc(C)c1OCc1cc(C(=O)N2CC3C[C@@H]4CC2C[C@H](C3)C4)no1`, for which the AC50 was 2.69 µM.

With `COc1cc(OC)cc(-c2nnc(SCC(=O)N(Cc3ccccc3)C(C)(C)C)o2)c1`, the AC50 was 2.74 µM.

As to `CCOC(=O)c1c(CSc2ccc(C)cc2)oc2ccc(O)cc12`, the AC50 is 5.05 µM.

On to `Brc1cccc(OCCN2CCc3ccccc3C2)c1`, for which the AC50 is > 19.5 µM (inactive).

In the case of `Cc1ccc(NC(=O)CN(C)C(=O)Cn2ncc(Cl)c(Cl)c2=O)cc1`, the AC50 is 4.22 µM.

With `COc1ccc(Cn2c(SCc3ccccc3C)nc3cc(OC)c(OC)cc3c2=N)cc1`, the AC50 is 3.7 µM.

Regarding `CCOC(=O)c1c(NC(=O)C(c2ccccc2)c2ccccc2)sc2c1C1CCN2CC1`, the AC50 was 2.84 µM.

As to `CCOc1cc(N2CCOCC2)c(OCC)cc1NC(=O)CN1CCC(Cc2ccccc2)CC1`, the AC50 is 2.43 µM.

Take `CCCc1cc2c(=O)c(-c3ccc4c(c3)OCCO4)coc2cc1OC(=O)c1ccco1`: the AC50 was 10.9 µM.

As to `COc1cc2c(-c3ccc(O)cc3)nc3c(c(C)nn3-c3ccccc3)c2cc1OC`, the AC50 was 3.92 µM.

As for `COc1cccc(-c2cc(=O)c3cc(NC(=O)c4ccc(N(C)C)cc4)ccc3[nH]2)c1`, the AC50 is 0.559 µM.

With `COc1cc(OC)cc(-c2cc3ccc(OC)cc3cn2)c1`, the AC50 was 5.43 µM.

In the case of `CC1(NC(=O)CC(c2ccccc2)(c2ccccc2)c2ccccc2)CCN(CCCc2ccccc2)C1=O` (stereo not given), the AC50 was 6.85 µM.

For the compound `Cc1cc(C)nc(SCc2ccc(C(=O)NNC(=O)Nc3cccc(Cl)c3)cc2)n1`, the AC50 was 3.92 µM.

As to `CC(/C=N/n1c(C2CCCCC2)n[nH]c1=S)=C\c1ccccc1`, the AC50 is 4.88 µM.
